Entries after “also recorded” stand apart in the source; their conditions may differ.
What was measured:
calcineurin = molecular target: T1, calcineurin (Homo sapiens, UniProt Q08209); test: Phosphatase activity assay (Biomol Green Assay-Kit), calcineurin; type: biochemical; settings: 1 nM tautomycin
T1 construct: purchased Biomol
Method: (§1) Activity of recombinant PP1 (NEB) and calcineurin (Biomol) was measured with and without 1 nM tautomycin using the Biomol Green Assay-Kit (Biomol) according to manufacturer's instruction.

recombinant PP1 = molecular target: T2, recombinant PP1 (Oryctolagus cuniculus, UniProt P62139); test: PP1 activity assay (Biomol Green Assay-Kit); type: biochemical; settings: 1 nM tautomycin
T2 construct: purchased NEB
T2 sequence (P62139 whole entry): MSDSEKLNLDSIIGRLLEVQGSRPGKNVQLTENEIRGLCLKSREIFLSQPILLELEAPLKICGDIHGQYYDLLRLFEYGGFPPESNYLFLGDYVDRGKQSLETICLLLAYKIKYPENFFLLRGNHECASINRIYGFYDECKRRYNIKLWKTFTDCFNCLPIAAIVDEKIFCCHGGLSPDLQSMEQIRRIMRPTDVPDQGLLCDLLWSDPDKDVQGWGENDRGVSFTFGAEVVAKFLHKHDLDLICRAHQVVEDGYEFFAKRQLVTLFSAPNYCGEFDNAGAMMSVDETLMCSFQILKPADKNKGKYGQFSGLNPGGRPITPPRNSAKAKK
Method: as §1

[1] = test system: hippocampal LTP in slices from arcAβ mice and wt littermates; test: Tautomycin bath application to acute hippocampal slices, LTP measurement (fEPSP recordings); type: cell-based, mouse; settings: 1 nM tautomycin, at least 1 h before recording
[2] = test system: hippocampal LTP in slices from wildtype, I-1* control and I-1* transgenic mice; test: Aβ-oligomers bath application to acute hippocampal slices, LTP measurement; type: cell-based, mouse

T1 sequence (P63098 2-170, other chains not shown): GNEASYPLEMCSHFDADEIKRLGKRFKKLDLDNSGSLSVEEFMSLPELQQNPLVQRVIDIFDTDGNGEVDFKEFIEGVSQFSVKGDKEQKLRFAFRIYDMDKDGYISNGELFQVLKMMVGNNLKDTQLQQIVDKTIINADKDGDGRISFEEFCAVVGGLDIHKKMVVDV

Compound	inhibition at 0.001 µM (calcineurin) [%]	inhibition of calcineurin activity (in words) (calcineurin)	inhibition at 0.001 µM (recombinant PP1) [%]	inhibition of recombinant PP1 activity (in words) (recombinant PP1)	effect on LTP deficit in slices from arcAβ (tg) mice (in words) ([1]; 3 months old arcAβ mice)	effect on LTP in slices from wt (non-transgenic) mice (in words) ([1]; wt littermates)	effect on LTP in slices from I-1* control mice (in words) ([2]; Aβ-oligomers bath-applied at least 1 h, I-1* littermate controls)	effect on LTP in slices from I-1* transgenic (mutant) mice with reduced PP1 activity (in words) ([2]; Aβ-oligomers bath-applied at least 1 h, I-1* transgenic mice)	effect on LTP in slices from wildtype mice (in words) ([2]; Aβ-oligomers corresponding to 0.5 μM initial peptide, bath-applied at least 1 h)
CO[C@H]([C@H](O)CC(=O)[C@@H](C)[C@@H](O)CC[C@@H](C)[C@@H]1O[C@]2(CC[C@@H](C)[C@H](CC[C@H](C)C(C)=O)O2)CC[C@@H]1C)[C@H](OC(=O)C[C@@H](O)C1=C(C)C(=O)OC1=O)C(C)C [tautomycin]	< 10	not calcineurin	~90	specifically inhibits the activity of recombinant PP1	fully rescued the LTP deficit; also recorded: full rescue of LTP	has no effect			
Aβ-oligomers: oligomers produced from synthetic Aβ 1-42 (Bachem) according to Klein							impair LTP; also recorded: Aβ-oligomers mediated LTP deficit	not in mutant mice; also recorded: failed to inhibit LTP	impair LTP; also recorded: LTP was inhibited

Source: US20110086908A9, “USE OF PHOSPHATASE INHIBITORS FOR THE TREATMENT OF NEURODEGENERATIVE DISEASES” (priority 2007, published 2011)
